Measured values reported in patent US20240336630A1, “MAP4K1 INHIBITORS” (Blueprint Medicines Corporation, priority 2021, published 2024).

How the values were obtained:
[1] = tested on: Primary T Cell (expanded CD3+ T cells); test: T cell enhancement of cytokines: IL2 measurement (HTRF) in expanded CD3+ T cells stimulated with anti-CD3/anti-CD28; assay type: cell-based; settings: Homo sapiens, plate-bound anti-CD3 and soluble anti-CD28, 24 h, read-out: IL-2 Primary T Cell EC50
Protocol: T cells are isolated from whole blood of healthy donors by immunomagnetic negative selection following manufacture's protocol (StemCell Technologies, human T cell isolation kit). Purity of isolated cells is assessed by flow cytometry and yields 95-98% CD3^+ T cells. For expansion of T cells, 1×10^6 cells/well are plated in serum free cell expansion media (ThermoFisher) containing 30U of recombinant human IL2 (R&D) and stimulated with 25 ul of CD3/CD28 beads (Invitrogen) in 24 well plates for 3-4 days. T cells are then expanded in 175 cm flasks and maintained at a cell density of 1 to 2.5×10^6 cells/ml days by addition of ⅔ of fresh media every 2-3 days. After 10-14 days, cells are frozen in BamBanker freezing media (Thermo) and stored in liquid nitrogen.
For IL2 measurement, expanded CD3^+ T cells are dispensed at 100K cells/well (cultured in X-VIVO 10 Serum-free media) and are stimulated with plate-bound anti-CD3 and soluble anti-CD28 in the presence of vehicle or compound of the disclosure at various concentrations for 24 h. As outlined in the manufacturer's protocol (Cisbio), 16 μL of conditioned media is transferred to a white 384-well low volume plate. Following a 24 h incubation with the anti-IL2 antibodies, the homogenous time resolved fluorescence (HTRF) is measured.

MAP4K1 (HPK1) = biological target: T1, MAP4K1 (HPK1) (Homo sapiens, UniProt Q92918); test: Inhibition of MAP4K1 biochemical enzymatic activity (EZReader 2 electrophoretic mobility shift); settings: HPK1 (Invitrogen), S6K2tide 1.5 μM, 120 min; ATP 26 μM or 1000 μM, not stated which for Table 3
T1 construct: purchased Invitrogen
T1 sequence (Q92918 whole entry): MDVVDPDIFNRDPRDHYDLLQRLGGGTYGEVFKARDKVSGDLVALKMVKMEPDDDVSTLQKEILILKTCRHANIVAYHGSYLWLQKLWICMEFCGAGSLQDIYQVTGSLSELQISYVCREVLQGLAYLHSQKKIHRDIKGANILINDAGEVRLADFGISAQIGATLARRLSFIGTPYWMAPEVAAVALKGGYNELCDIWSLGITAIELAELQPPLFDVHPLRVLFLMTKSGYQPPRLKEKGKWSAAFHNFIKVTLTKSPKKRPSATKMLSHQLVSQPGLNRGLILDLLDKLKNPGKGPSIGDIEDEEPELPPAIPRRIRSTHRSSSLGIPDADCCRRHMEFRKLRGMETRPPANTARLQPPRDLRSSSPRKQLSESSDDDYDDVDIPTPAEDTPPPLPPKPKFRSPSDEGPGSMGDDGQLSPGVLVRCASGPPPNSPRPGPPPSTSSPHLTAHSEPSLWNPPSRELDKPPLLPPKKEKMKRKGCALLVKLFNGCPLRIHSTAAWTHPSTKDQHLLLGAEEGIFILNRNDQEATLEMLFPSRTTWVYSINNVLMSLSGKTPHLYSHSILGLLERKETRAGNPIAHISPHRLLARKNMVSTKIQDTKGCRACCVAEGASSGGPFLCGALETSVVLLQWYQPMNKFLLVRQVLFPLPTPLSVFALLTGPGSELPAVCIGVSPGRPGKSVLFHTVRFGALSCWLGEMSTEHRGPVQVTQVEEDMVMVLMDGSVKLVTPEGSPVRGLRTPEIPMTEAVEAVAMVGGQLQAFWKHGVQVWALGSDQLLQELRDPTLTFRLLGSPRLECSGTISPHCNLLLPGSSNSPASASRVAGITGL
From the text: MAP4K1 (HPK1) and relevant off-target enzymatic activity was monitored using the Perkin Elmer electrophoretic mobility shift technology platform—the EZReader 2. […] Within the linear, steady-state phase of the kinase enzymatic reaction, the mixed pool of phosphorylated (product) and non-phosphorylated (substrate) peptides was passed through the microfluidic system of the PerkinElmer EZ Reader 2, under an applied electric potential difference. The presence of the phosphate group on the product peptide provided a difference in mass and charge between that of the substrate peptide, resulting in a separation of the substrate and product pools in the sample (Perrin et al. 2010). As the product and substrate peptide mixture passes the lasers within the instrument, these pools are detected (λex=488 nm, λem=568 nm) and resolved as separate peaks. The ratio between these peaks reflects the activity of the compound at that concentration, in that well, under those conditions.
Inhibitors were dissolved in 100% DMSO at a stock concentration of 10 mM. A 100×, 10-point, 4-fold serial dilution of each inhibitor was created in 100% DMSO either manually or on a Hamilton STAR liquid handler, starting at a relevant concentration, usually 1 mM. A volume of 0.130 μL of each concentration was transferred to the relevant wells of a 384-well plate (Greiner 781 201) in duplicate using a TTPLabtech Mosquito nano-litre dispenser. Using a Multidrop Combi, the remaining constituents of the kinase reaction were added to the 130 nL of dosed compound as follows (see table below for final reaction details):
Enzyme activity assays at the ^APPKM for ATP or 1 mM ATP: In each well of a 384-well plate, 0.1-15 nM of untreated enzyme was incubated in a total of 13 μL of buffer (100 mM HEPES pH 7.5, 0.015% Brij 35, 10 mM MgCl2, 1 mM DTT) with 1.5 μM fluorescent peptide and 20-1000 μM ATP, at 25° C., for 60-180 minutes in the presence or absence of a dosed concentration series of compound (1% DMSO final concentration). The kinase reactions were stopped by the addition of 70 μl of Stop buffer (100 mM HEPES pH 7.5, 0.015% Brij 35, 35 mM EDTA and 0.2% of Coating Reagent 3 (Caliper Lifesciences)). The plates were read on a Caliper EZReader 2 as described above.

Structure (SMILES)	EC50 [1]	IC50 (MAP4K1 (HPK1))
CC[C@](C)(O)c1cnc(OC2CC2)c2cnc(Nc3ccc4c(n3)C3(CC3)[C@@H](C)OC4=O)cc12 (single isomer, unassigned) [Compound 27]	42 nM	1.7 nM
CC[C@@](C)(O)c1cnc(OC2CC2)c2cnc(Nc3ccc4c(n3)[C@@H](C)C(C)(C)OC4=O)cc12 (single isomer, unassigned) [Compound 31]	47 nM	0.42 nM
CC[C@](C)(O)c1cnc(OC2CC2)c2cnc(Nc3ccc4c(n3)C3(CC3)C(C)(C)OC4=O)cc12 (single isomer, unassigned) [Compound 40]	169 nM	2.09 nM
CC[C@](C)(O)c1cnc(OC2CC2)c2cnc(Nc3ccc4c(n3)C(C)(C)[C@@H](C)OC4=O)cc12 [Compound 34]	132 nM	2.53 nM
C[C@@H]1c2nc(Nc3cc4c(C(C)(O)C5CC5)cnc(OCC(F)F)c4cn3)ccc2C(=O)OC1(C)C (stereo partly drawn) [Compound 47]	–	1.57 nM
C[C@@H]1OC(=O)c2ccc(Nc3cc4c(C(C)(C)O)cnc(O[C@H]5C[C@@H](S(C)(=O)=O)C5)c4cn3)nc2[C@H]1C [Compound 56]	–	0.45 nM

These reach a lower IC50 (MAP4K1 (HPK1)). Values come first.

EC50 [1]	IC50 (MAP4K1 (HPK1))	Structure (SMILES)
23 nM	0.39 nM	CC[C@@](C)(O)c1cnc(O[C@H]2C[C@@H](S(C)(=O)=O)C2)c2cnc(Nc3ccc4c(n3)[C@@H](C)[C@H](C)OC4=O)cc12 (single isomer, unassigned) [Compound 61]
65 nM	0.29 nM	C[C@@H]1c2nc(Nc3cc4c(C(C)(C)O)cnc(O[C@H]5C[C@@H](S(C)(=O)=O)C5)c4cn3)ccc2C(=O)OC1(C)C [Compound 60]
–	0.2 nM	C[C@@H]1OC(=O)c2ccc(Nc3cc4c(C(C)(C)O)cnc(OC5CN(S(C)(=O)=O)C5)c4cn3)nc2[C@H]1C [Compound 57, (7S,8R)-2-((5-(2-Hydroxypropan-2-yl)-8-((1-(methylsulfonyl)azetidin-3-yl)oxy)-2,7-naphthyridin-3-yl)amino)-7,8-dimethyl-7,8-dihydro-5H-pyrano[4,3-b]pyridin-5-one]
